Data from patent US5750648A, “Retroviral protease inhibitors and combinations thereof” (G.D. Searle & Co., priority 1994, dated 1998).
Where a name gives a salt, the structure may show the parent alone.

What was measured:
HIV protease = HIV protease (Human immunodeficiency virus type 1 group M subtype B, UniProt P04585); experiment: HIV protease enzyme assay (fluorescent substrate 2-aminobenzoyl-Ile-Nle-Phe(p-NO2)-Gln-ArgNH2); assay type: biochemical; settings: concentration at which the inhibitor reduces enzyme activity by 50%; enzyme about 12.3 nanomolar, substrate about 80 μM, pH 6.4
Excerpt: The compounds of the present invention are advantageously effective HIV protease inhibitors. Utilizing an enzyme assay as described below, the compounds set forth in the examples herein disclosed inhibited the HIV enzyme. The preferred compounds of the present invention and their calculated IC50 (the concentration at which the inhibitor compound reduces enzyme activity by 50%) values are shown in Table 2.
The enzyme method is as follows. The substrate is 2-aminobenzoyl-Ile-Nle-Phe(p-NO2)-Gln-ArgNH2. The positive control is MVT-101 (Miller, M. et al, Science, 246, 1149 (1989)). The assay buffer is 20 mM sodium phosphate, pH 6.4, 20% glycerol, 1 mM EDTA, 1 mM DTT and 0.1% CHAPS. The substrate is dissolved in DMSO, then diluted 10 fold in assay buffer. Final substrate concentration in the assay is about 80 μM. HIV protease is diluted in the assay buffer to a final enzyme concentration of about 12.3 nanomolar, based on a molecular weight of 10,780.
The final concentration of DMSO is about 14% and the final concentration of glycerol is about 18%. The test compound is dissolved in DMSO and diluted in DMSO to ten times (10×) the test concentration. Ten microliters (10 μL) of the enzyme preparation is added, the materials mixed and then the mixture is incubated at ambient temperature for 15 minutes. The enzyme reaction is initiated by the addition of 40 μL of substrate. The increase in fluorescence is monitored at 4 time points (0, 8, 16 and 24 minutes) at ambient temperature. Each assay is carried out in duplicate wells.

HIV-1 in CEM cells = experiment: CEM cell assay, HIV inhibition in acutely infected cells (MTT); assay type: cell-based; settings: Human immunodeficiency virus 1, CCRF-CEM, 168 h; HIV-1 infected CEM cells, 7 days
Description: The effectiveness of selected compounds of the present invention were determined in the above-described enzyme assay and in a CEM cell assay. The HIV inhibition assay method of acutely infected cells is an automated tetrazolium based calorimetric assay essentially that reported by Pauwles et al, J. Virol. Methods 20, 309-321 (1988). Assays were performed in 96-well tissue culture plates. CEM cells, a CD4+ cell line, were grown in RPMI-1640 medium (Gibco) supplemented with a 10% fetal calf serum and were then treated with polybrene (2 μg/ml). An 80 μl volume of medium containing 1×10^4 cells was dispensed into each well of the tissue culture plate. To each well was added a 100 μl volume of test compound dissolved in tissue culture medium (or medium without test compound as a control) to achieve the desired final concentration and the cells were incubated at 37° C. for 1 hour. A frozen culture of HIV-1 was diluted in culture medium to a concentration of […] (TCID50=the dose of virus that infects 50% of cells in tissue culture), and a 20 μL volume of the virus sample (containing 1000 TCID50 of virus) was added to wells containing test compound and to wells containing only medium (infected control cells). Several wells received culture medium without virus (uninfected control cells). Likewise, the intrinsic toxicity of the test compound was determined by adding medium without virus to several wells containing test compound. In summary, the tissue culture plates contained the following experiments: In experiments 2 and 4 the final concentrations of test compounds were 1, 10, 100 and 500 μg/ml. Either azidothymidine (AZT) or dideoxyinosine (ddI) was included as a positive drug control. […] DMSO was added to all control wells at an appropriate concentration. Following the addition of virus, cells were incubated at 37° C. in a humidified, 5% CO2 atmosphere for 7 days. Test compounds could be added on days 0, 2 and 5 if desired. On day 7, post-infection, the cells in each well were resuspended and a 100 μl sample of each cell suspension was removed for assay. A 20 μL volume of a 5 mg/ml solution of 3-(4,5-dimethylthiazol-2-yl)-2,5-diphenyltetrazolium bromide (MTT) was added to each 100 μL cell suspension, and the cells were incubated for 4 hours at […] in a 5% CO2 environment. […] To each sample was added 100 μl of 10% sodium dodecylsulfate in 0.01N HCl to lyse the cells, and samples were incubated overnight. The absorbance at 590 nm was determined for each sample using a Molecular Devices microplate reader. Absorbance values for each set of wells is compared to assess viral control infection, uninfected control cell response as well as test compound by cytotoxicity and antiviral efficacy.

CEM cells = assay type: cell-based; design: unit not given beside the values
Description: The HIV inhibition assay method of acutely infected cells is an automated tetrazolium based calorimetric assay essentially that reported by Pauwles et al, J. Virol. Methods 20, 309-321 (1988). Assays were performed in 96-well tissue culture plates. CEM cells, a CD4+ cell line, were grown in RPMI-1640 medium (Gibco) supplemented with a 10% fetal calf serum and were then treated with polybrene (2 μg/ml). An 80 μl volume of medium containing 1×10^4 cells was dispensed into each well of the tissue culture plate. To each well was added a 100 μl volume of test compound dissolved in tissue culture medium (or medium without test compound as a control) to achieve the desired final concentration and the cells were incubated at 37° C. for 1 hour. A frozen culture of HIV-1 was diluted in culture medium to a concentration of 5×104 TCID50 per ml (TCID50=the dose of virus that infects 50% of cells in tissue culture), and a 20 μL volume of the virus sample (containing 1000 TCID50 of virus) was added to wells containing test compound and to wells containing only medium (infected control cells). Several wells received culture medium without virus (uninfected control cells). Likewise, the intrinsic toxicity of the test compound was determined by adding medium without virus to several wells containing test compound. In summary, the tissue culture plates contained the following experiments: In experiments 2 and 4 the final concentrations of test compounds were 1, 10, 100 and 500 μg/ml. Either azidothymidine (AZT) or dideoxyinosine (ddI) was included as a positive drug control. […] DMSO was added to all control wells at an appropriate concentration. Following the addition of virus, cells were incubated at 37° C. in a humidified, 5% CO2 atmosphere for 7 days. Test compounds could be added on days 0, 2 and 5 if desired. […] The absorbance at 590 nm was determined for each sample using a Molecular Devices microplate reader. Absorbance values for each set of wells is compared to assess viral control infection, uninfected control cell response as well as test compound by cytotoxicity and antiviral efficacy.

[1] = Identification of metabolite in blood of male rats after oral administration (LC-MS); assay type: in vivo, rat; settings: male rats (n=5), in 0.5% methylcellulose and 0.1% polysorbate 80, blood at 0.25-4 hours
Description: Butaneamide, 2-[(N,N-dimethylaminoacetyl)amino]-N-[3-[[[(1,1-dimethylethyl)amino]carbonyl](3-methylbutyl)amino]-2-hydroxy-1-(phenylmethyl)propyl]-3,3-dimethyl-, [1S-[1R*(R*), 2S*]]-, as prepared in Example 1 herein, is administered to male rats (n=5) orally in water containing 0.5% methylcellulose and 0.1% polysorbate 80 in a total volume of 5 to 7 mL per kilogram. Blood samples are collected at 0.25, 0.50, 1, 2 and 4 hours. The samples for each time-point are pooled and extracted onto a 100 mg C18 solid phase extraction column (SPEC) after prior treatment with methanol to denature plasma proteins. The extract is purified by washing the SPEC with water and collected after the addition of 1% formic acid in methanol to the SPEC. Concentration of the extract is achieved by evaporation and resolubilization in a small volume of water:acetonitrile (3:1, v/v). The resolubilized extract is filtered through a 0.2μ filter and injected onto a liquid chromatograph coupled to a mass spectrometer, using a VG Trio 2 Mass Spectrometer, by means of a thermospray interface. The chromatographic separation is produced by use of a 10 cm (2×5 cm) YMC Basic column with a mobile phase of water:acetonitrile:pyridine:formic acid (545:440:10:5, by volume).

| SMILES | IC50 (HIV protease) [nM] | EC50 (HIV-1 in CEM cells) | TD50 (CEM cells) | metabolite found in blood extract compared with synthesized metabolite standard [1] |
| --- | --- | --- | --- | --- |
| CC[C@H](C)[C@H](NC(=O)CN(C)C)C(=O)N[C@@H](Cc1ccccc1)[C@H](O)CN(CCC(C)C)C(=O)NC(C)(C)C [Example 3, (2R,3S)-3-(N,N-dimethylaminoacetyl-L-isoleucinyl)amido-1-[N-isoamyl-N-(tert-butylcarbamoyl)]amino-4-phenyl-2-butanol] | 14 | 66 nM |  |  |
| CC[C@H](C)[C@H](NC(=O)CNC)C(=O)N[C@@H](Cc1ccccc1)[C@H](O)CN(CCC(C)C)C(=O)NC(C)(C)C [Example 4, (2R,3S)-3-(N-methylaminoacetyl-L-isoleucinyl) amido-1-[N-isoamyl-N-(tert-butylcarbamoyl)]amino-4-phenyl-2-butanol] | 13 | 91 nM | 55,000 |  |
| CC(C)CCN(C[C@@H](O)[C@H](Cc1ccccc1)NC(=O)[C@@H](NC(=O)[C@H](C)N(C)C(=O)OCc1ccccc1)C(C)(C)C)C(=O)NC(C)(C)C [Example 13, (2R, 3S)-3-(N-benzyloxycarbonyl-N-methyl-L-alaninyl-L-tert-butylglycinyl)amino-1-[N-isoamyl-N-(tert-butylcarbamoyl)]amino-4-phenyl-2-butanol] | 14 | 0.034 µg/mL |  |  |
| CN[C@H](C)C(=O)N[C@H](C(=O)N[C@@H](Cc1ccccc1)[C@H](O)CN(CCC(C)C)C(=O)NC(C)(C)C)C(C)(C)C [Example 16, (2R, 3S)-3-(N-methyl-D-alaninyl-L-tert-butylglycinyl)amino-1-[N-isoamyl-N-(tert-butylcarbamoyl)]amino-4-phenyl-2-butanol] | 18 | 0.059 µg/mL |  |  |

Now those with a lower IC50 (HIV protease), led by results:

| IC50 (HIV protease) [nM] | EC50 (HIV-1 in CEM cells) | SMILES | TD50 (CEM cells) | metabolite found in blood extract compared with synthesized metabolite standard [1] |
| --- | --- | --- | --- | --- |
| 10 | 58 nM | CC(C)CCN(C[C@@H](O)[C@H](Cc1ccccc1)NC(=O)[C@@H](NC(=O)CN(C)C)C(C)(C)C)C(=O)NC(C)(C)C [Example 1, Butaneamide, 2-[(N,N-dimethylaminoacetyl)amino]-N-[3-[[[(1,1-dimethylethyl)amino]carbonyl](3-methylbutyl)amino]-2-hydroxy-1-(phenylmethyl)propyl]-3,3-dimethyl-,[1S-[1R*(R*), 2S*]]-] | 45,000 | corresponding spectra and chromatogram from a standard of the synthesized metabolite can be favorably compared |
| 6 | 22 nM | CNCC(=O)N[C@H](C(=O)N[C@@H](Cc1ccccc1)[C@H](O)CN(CCC(C)C)C(=O)NC(C)(C)C)C(C)(C)C [Example 2, (2R, 3S)-3(N-methylaminoacetyl-L-tert-butylglycinyl) amino-2-hydroxy-4-phenyl-1-[N-(3-methylbutyl)-N-[(1,1-dimethylethyl)amino]carbonyl]aminobutane] | 45,000 |  |
| 8 | 0.096 µg/mL | CN[C@@H](C)C(=O)N[C@H](C(=O)N[C@@H](Cc1ccccc1)[C@H](O)CN(CCC(C)C)C(=O)NC(C)(C)C)C(C)(C)C [Example 14, (2R, 3S)-3-(N-methyl-L-alaninyl-L-tert-butylglycinyl)amino-1-[N-isoamyl-N-(tert-butylcarbamoyl)]amino-4-phenyl-2-butanol] |  |  |
| 10 | 0.038 µg/mL | CC(C)CCN(C[C@@H](O)[C@H](Cc1ccccc1)NC(=O)[C@@H](NC(=O)CN)C(C)(C)C)C(=O)NC(C)(C)C [Example 18, (2R, 3S)-3-(glycinyl-L-tert-butylglycinyl)amino-1-[N-isoamyl-N-(tert-butylcarbamoyl)]amino-4-phenyl-2-butanol Hydrochloride Salt] |  |  |
